From patent publication US20080070890A1, “Spirocyclic Azetidinone Compounds and Methods of Use Thereof” (priority 2006, published 2008)

Molecular target: TRPV1 (Homo sapiens, UniProt Q8NER1)
Test: cell-based
Description: Combine 42 μL of dye mixture with 11 mL of FLIPR buffer/96-well plate.
Laser is adjusted upwards for an average signal≧10,000/well and less than 10% variability.

Sequence of TRPV1 (Q8NER1 whole entry, species assumed): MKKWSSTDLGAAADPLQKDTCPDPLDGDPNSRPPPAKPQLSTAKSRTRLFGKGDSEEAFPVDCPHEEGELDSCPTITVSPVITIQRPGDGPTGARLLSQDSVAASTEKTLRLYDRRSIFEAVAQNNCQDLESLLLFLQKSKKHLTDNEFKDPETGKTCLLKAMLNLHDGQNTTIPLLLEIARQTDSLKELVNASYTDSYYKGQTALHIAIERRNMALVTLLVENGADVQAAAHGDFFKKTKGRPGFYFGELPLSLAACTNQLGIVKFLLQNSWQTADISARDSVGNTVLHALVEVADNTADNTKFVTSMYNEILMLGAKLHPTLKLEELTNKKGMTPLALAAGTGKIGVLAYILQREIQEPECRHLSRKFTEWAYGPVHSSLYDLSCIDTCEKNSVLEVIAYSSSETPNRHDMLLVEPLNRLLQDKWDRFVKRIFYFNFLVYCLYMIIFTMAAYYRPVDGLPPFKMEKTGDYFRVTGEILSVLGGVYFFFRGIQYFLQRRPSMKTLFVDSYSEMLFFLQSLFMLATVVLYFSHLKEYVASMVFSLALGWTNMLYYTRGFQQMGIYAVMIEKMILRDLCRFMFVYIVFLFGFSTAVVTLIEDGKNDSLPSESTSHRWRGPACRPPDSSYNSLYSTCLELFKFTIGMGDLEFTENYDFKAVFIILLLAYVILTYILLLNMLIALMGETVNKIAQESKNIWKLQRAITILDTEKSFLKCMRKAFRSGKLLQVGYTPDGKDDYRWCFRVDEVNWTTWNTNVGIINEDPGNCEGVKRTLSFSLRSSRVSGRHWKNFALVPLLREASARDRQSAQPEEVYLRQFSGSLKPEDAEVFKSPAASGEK

- IC50: ~0.5 µM
Compound: Oc1cc2c(cc1O)CN(C(=S)NCCc1ccc(Cl)cc1)CCC2 [capsazepine]
